Values after ≈ are worked out from the molar mass of the structure shown.
What was measured:
[1] = test system: herpes simplex virus 1 (HSV-1); assay: Plaque reduction assay; type: cell-based; conditions: Human alphaherpesvirus 1
[2] = test system: ADV7; conditions: cited from earlier work

| SMILES | IC50 [1] [µg/mL] | EC50 [2] [µg/mL] |
| --- | --- | --- |
| Nc1nc2c(ncn2COCCO)c(=O)[nH]1 [acyclovir] | 0.07 (≈ 0.311 µM) | – |
| NC(=O)c1ncn([C@@H]2O[C@H](CO)[C@@H](O)[C@H]2O)n1 [ribavirin] | – | 27.8 (≈ 114 µM) |

Source: article PMC9557897 (ACS Omega, 2022)
